17 compounds from US10829478B2, “5-[3-[piperazin-1-yl]-3-oxo-propyl]-imidazolidine-2,4-dione derivatives as ADAMTS 4 and 5 inhibitors for treating e.g. osteoarthritis” (Galapagos NV, priority 2016, dated 2020) can be followed below.

The target of one experiment is human ADAMTS6 (Homo sapiens (Human), UniProt Q9UKP5). The experiment can be described thus: hADAMTS-6 fluorescent based protease assay (520 MMP FRET substrate XII). As to conditions: 37° C. for 2 h; read-out: hADAMTS-6 potency IC50. It counts as biochemical. As for the experimental part: The IC50 value for test compounds can be determined in a fluorescent based protease assay.
human ADAMTS6, sequence (Q9UKP5 other isoform, or with tags, fused parts or gaps): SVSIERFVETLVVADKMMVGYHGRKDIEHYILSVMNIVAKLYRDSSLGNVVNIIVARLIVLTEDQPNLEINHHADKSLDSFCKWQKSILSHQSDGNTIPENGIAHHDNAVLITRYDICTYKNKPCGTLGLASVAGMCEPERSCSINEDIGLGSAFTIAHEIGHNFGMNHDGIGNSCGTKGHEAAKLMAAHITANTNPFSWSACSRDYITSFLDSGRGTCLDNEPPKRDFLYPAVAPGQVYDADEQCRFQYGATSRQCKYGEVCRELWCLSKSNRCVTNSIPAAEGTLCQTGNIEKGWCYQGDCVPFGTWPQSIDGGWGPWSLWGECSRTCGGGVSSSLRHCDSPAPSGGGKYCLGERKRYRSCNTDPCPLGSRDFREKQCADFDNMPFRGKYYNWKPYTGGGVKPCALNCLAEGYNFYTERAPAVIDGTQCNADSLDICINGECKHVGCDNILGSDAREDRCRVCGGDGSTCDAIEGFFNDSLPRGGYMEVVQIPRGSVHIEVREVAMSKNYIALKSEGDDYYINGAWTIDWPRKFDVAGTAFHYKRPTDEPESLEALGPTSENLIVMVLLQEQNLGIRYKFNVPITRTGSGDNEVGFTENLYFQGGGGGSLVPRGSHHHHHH
The substrate contains sequence Arg-Pro-Lys-Pro-Tyr-Ala-Nva-Trp-Met-Lys (SEQ ID NO: 7) with attached a fluorescent probe and a quencher. Without ADAMTS6, the emission of the probe is quenched. If the substrate is cleaved by ADAMTS6, the emission of the probe is not quenched anymore. Inhibition of ADAMTS6 activity, will result in a decrease of the signal.
To perform the assay, 4 μL of a dilution series of compound in water, starting from 20 μM highest concentration, ⅕ dilution, is added to the wells. 2 ng ADAMTS6 enzyme is diluted in 25 mM Tris pH8.0, 0.05% CHAPS, 2.5 mM CaCl2 in a total volume of 26 μL (final concentration 0.73 nM). The reaction is started by addition of 10 μL of 1 μM 520 MMP FRET Substrate XII (final concentration, diluted in same buffer as described above) and the mixture is incubated at 37° C. for 2 h. […] After this incubation, cleavage of the substrate is measured using the Envision (Perkin Elmer, exc485/em530).

The target in experiment [1] is T1, human MMP13 (Homo sapiens (Human), UniProt P45452). Briefly: hMMP13 assay, Protocol 2 (390 MMP FRET Substrate I, Enzo enzyme). As to conditions: Protocol 2, human MMP13 (Enzo Life Sciences), read-out: hMMP-13 potency IC50. It counts as biochemical. As for the experimental part: (§1) Human MMP13 is preactivated by incubated the enzyme in the same buffer complemented with 1 mM freshly prepared p-Aminophenylmercuric acetate (AMPA) for 1 h at 37° C.

A further experiment concerns the target human ADAMTS-5 (Homo sapiens (Human), UniProt Q9UNA0). The experiment can be described thus: hADAMTS-5 TBIS-1 cleavage assay, Protocol 3. In kind it is biochemical. As to conditions: 90 min at 37° C., read-out: hADAMTS-5 potency IC50.
Another experiment concerns the target human ADAMTS4 (Homo sapiens (Human), UniProt O75173). Briefly: hADAMTS-4 TBIS-1 cleavage assay, Protocol 2. It counts as biochemical.
A further experiment addresses human TACE (Homo sapiens (Human), UniProt P78536). Briefly: biochemical.
The target in another experiment is human MMP14 (Homo sapiens (Human), UniProt P50281). Briefly: hMMP14 assay (390 MMP FRET Substrate I). In kind it is biochemical. As to conditions: human MMP14 (Biomol), read-out: hMMP-14 potency IC50.
Experiment [2] addresses T1, human MMP13. Briefly: hMMP13 assay, Protocol 1 (390 MMP FRET Substrate I, Chemicon enzyme). In kind it is biochemical. As to conditions: Protocol 1, human MMP13 (Chemicon), read-out: hMMP-13 potency IC50. As for the experimental part:
as §1

[3] abbreviates: Protocol 2, 180 min at 37° C., read-out: ADAMTS4 potency IC50.

Read-outs that look alike come from different tables or passages of the source.

A word on the IC50: it is the point on the concentration scale where inhibition reaches its midpoint.

human TACE, sequence (P78536 215-671): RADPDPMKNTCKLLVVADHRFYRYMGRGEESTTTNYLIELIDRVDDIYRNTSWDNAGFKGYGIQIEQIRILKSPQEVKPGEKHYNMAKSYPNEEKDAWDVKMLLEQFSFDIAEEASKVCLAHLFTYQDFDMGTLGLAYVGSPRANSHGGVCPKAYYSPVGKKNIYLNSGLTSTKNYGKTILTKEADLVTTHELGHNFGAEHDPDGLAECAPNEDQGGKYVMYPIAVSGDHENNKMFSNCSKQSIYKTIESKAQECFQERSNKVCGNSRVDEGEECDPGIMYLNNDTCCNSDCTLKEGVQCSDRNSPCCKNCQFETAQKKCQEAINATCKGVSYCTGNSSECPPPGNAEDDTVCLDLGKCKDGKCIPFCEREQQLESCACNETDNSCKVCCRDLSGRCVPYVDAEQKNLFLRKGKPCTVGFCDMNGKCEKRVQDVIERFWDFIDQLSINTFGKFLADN
human ADAMTS-5, sequence (Q9UNA0 262-930): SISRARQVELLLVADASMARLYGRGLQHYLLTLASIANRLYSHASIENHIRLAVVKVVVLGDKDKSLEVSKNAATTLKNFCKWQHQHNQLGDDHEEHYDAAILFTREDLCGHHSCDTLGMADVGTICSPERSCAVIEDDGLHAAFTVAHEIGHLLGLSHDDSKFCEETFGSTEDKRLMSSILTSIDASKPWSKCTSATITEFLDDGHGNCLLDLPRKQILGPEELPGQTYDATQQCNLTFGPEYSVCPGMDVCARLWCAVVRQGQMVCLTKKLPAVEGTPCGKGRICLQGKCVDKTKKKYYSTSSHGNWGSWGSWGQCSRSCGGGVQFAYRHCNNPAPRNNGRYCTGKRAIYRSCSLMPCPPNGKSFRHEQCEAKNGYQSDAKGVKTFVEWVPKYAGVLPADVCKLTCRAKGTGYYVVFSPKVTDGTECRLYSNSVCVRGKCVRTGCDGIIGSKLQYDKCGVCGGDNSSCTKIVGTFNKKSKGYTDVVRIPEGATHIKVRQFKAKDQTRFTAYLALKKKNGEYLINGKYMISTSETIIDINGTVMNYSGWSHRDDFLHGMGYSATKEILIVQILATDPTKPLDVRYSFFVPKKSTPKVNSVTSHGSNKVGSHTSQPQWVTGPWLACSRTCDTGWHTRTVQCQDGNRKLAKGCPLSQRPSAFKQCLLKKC
human ADAMTS4, sequence (O75173 213-837): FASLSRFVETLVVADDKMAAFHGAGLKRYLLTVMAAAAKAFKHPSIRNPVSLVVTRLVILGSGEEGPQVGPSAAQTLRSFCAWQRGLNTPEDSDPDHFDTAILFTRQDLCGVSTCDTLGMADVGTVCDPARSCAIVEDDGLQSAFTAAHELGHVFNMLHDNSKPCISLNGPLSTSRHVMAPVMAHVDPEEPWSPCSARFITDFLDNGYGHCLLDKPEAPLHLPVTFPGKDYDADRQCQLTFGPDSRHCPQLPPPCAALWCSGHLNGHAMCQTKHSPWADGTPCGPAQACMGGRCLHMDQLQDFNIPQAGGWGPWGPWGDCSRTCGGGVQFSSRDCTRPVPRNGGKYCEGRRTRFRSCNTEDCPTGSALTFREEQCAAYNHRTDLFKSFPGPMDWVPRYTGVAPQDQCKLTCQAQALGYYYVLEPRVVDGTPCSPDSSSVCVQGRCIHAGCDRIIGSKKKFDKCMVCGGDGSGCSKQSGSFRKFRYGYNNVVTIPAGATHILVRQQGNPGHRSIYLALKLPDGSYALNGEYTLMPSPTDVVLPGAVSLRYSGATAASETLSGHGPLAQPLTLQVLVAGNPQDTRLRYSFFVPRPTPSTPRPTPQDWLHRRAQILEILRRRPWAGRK
Method for human ADAMTS-5: The reaction is initiated by adding to the assay plate TBIS-1 (10 μL, 4.5 μM, Anaspec) in the same buffer.
Finally, the fluorescence is read on the Envision (Perkin Elmer) after an incubation of 90 min at 37° C. (Excitation 485 nm, emission 530).
Method for human MMP14: The basis for the assay is the cleavage of the substrate 390 MMP FRET Substrate I (Anaspec Cat #AS-27076) by human MMP14 (Biomol, Cat #SE-259).
The reaction is initiated by adding to the assay plate 390 MMP FRET Substrate I (10 μL, 2.5 μM) in the same buffer.
Finally, the fluorescence is read on the Envision (Perkin Elmer) after an incubation of 60 min at room temperature (Excitation 485 nm, Emission 530).
Method for human TACE: Finally, the fluorescence is read on the Envision (Perkin Elmer) after an incubation of 75 min at room temperature (Excitation 485 nm, Emission 530).

In the case of `CCc1cc(N2CCN(C(=O)CC[C@@]3(C)NC(=O)NC3=O)CC2)ccc1Cl` [Cpd 71, (5R)-5-[3-[4-(4-chloro-3-ethyl-phenyl)piperazin-1-yl]-3-oxo-propyl]-5-methyl-imidazolidine-2,4-dione], the IC50 at human ADAMTS6 is 25 to 50 nM; on human MMP13 [1], greater than 100 nM; on human ADAMTS-5, greater than 100 nM; at human ADAMTS4 (setting [3]), greater than 100 nM; on human TACE, greater than 100 nM; on human MMP14, greater than 100 nM.
As for `COc1cc(Cl)cc(N2CCN(C(=O)CC[C@@]3(C)NC(=O)NC3=O)C[C@@H]2C)c1` [Cpd 96, (5R)-5-[3-[(3 S)-4-(3-chloro-5-methoxy-phenyl)-3-methyl-piperazin-1-yl]-3-oxo-propyl]-5-methyl-imidazolidine-2,4-dione], the IC50 on human ADAMTS6 was 0.001 to 25 nM; on human MMP13 [1], greater than 100 nM; on human ADAMTS-5 it was greater than 100 nM; at human ADAMTS4 (setting [3]), greater than 100 nM; at human TACE, greater than 100 nM; on human MMP14 it was greater than 100 nM.
On to `COc1cc(N2CCN(C(=O)CC[C@@]3(C)NC(=O)NC3=O)C[C@@H]2C)cc(OC)c1F` [Cpd 89, (5R)-5-[3-[(3 S)-4-(4-fluoro-3,5-dimethoxy-phenyl)-3-methyl-piperazin-1-yl]-3-oxo-propyl]-5-methyl-imidazolidine-2,4-dione], for which the IC50 on human ADAMTS6 was 0.001 to 25 nM; at human MMP13 [1] it was greater than 100 nM; on human ADAMTS-5, greater than 100 nM; at human ADAMTS4 (setting [3]) it was greater than 100 nM; against human TACE, greater than 100 nM; on human MMP14, greater than 100 nM.
Take `CCc1cc(N2CCN(C(=O)[C@@H](C)C[C@@]3(COC)NC(=O)NC3=O)C[C@@H]2C)cc(OC)c1Cl` (mixture of isomers) [Cpd 117, 5-[3-[(3S)-4-(4-chloro-3-ethyl-5-methoxy-phenyl)-3-methyl-piperazin-1-yl]-2-methyl-3-oxo-propyl]-5-(methoxymethyl)imidazolidine-2,4-dione]: the 50% inhibitory concentration (IC50) at human ADAMTS6 is 0.001 to 25 nM; at human MMP13 [1] it was greater than 100 nM; at human ADAMTS-5 it was 50 to 100 nM; on human ADAMTS4 (setting [3]), greater than 100 nM; against human TACE, greater than 100 nM; at human MMP14 it was greater than 100 nM.
For `COc1cc(N2CCN(C(=O)CC[C@@]3(C)NC(=O)NC3=O)CC2C(F)(F)F)ccc1Cl` (stereo partly drawn) [Cpd 118, (5R)-5-[3-[4-(4-chloro-3-methoxy-phenyl)-3-(trifluoromethyl)piperazin-1-yl]-3-oxo-propyl]-5-methyl-imidazolidine-2,4-dione], the IC50 at human ADAMTS6 is 0.001 to 25 nM; on human MMP13 [1] it was greater than 100 nM; at human ADAMTS-5, greater than 100 nM; on human ADAMTS4 (setting [3]), greater than 100 nM; against human TACE, greater than 100 nM; on human MMP14, greater than 100 nM.
Turning to `CC[C@H]1CN(C(=O)CC[C@@]2(C)NC(=O)NC2=O)CCN1c1ccc(Cl)c(OC)c1` [Cpd 107, (5R)-5-[3-[(3 S)-4-(4-chloro-3-methoxy-phenyl)-3-ethyl-piperazin-1-yl]-3-oxo-propyl]-5-methyl-imidazolidine-2,4-dione], the IC50 at human ADAMTS6, on human MMP13 [1], at human ADAMTS-5, at human ADAMTS4 (setting [3]), against human TACE and at human MMP14 was greater than 100 nM throughout.
On to `COc1cc(N2CCN(C(=O)CCC3(C)NC(=O)NC3=O)CC2)cc(Cl)c1Cl` (centres unmarked) [Cpd 48, 5-[3-[4-(3,4-dichloro-5-methoxy-phenyl)piperazin-1-yl]-3-oxo-propyl]-5-methyl-imidazolidine-2,4-dione], for which the 50% inhibitory concentration (IC50) on human MMP13 [2] was greater than 100 nM; on human ADAMTS6, 0.001 to 25 nM; at human ADAMTS-5, 50 to 100 nM; at human ADAMTS4 (setting [3]) it was greater than 100 nM; against human TACE, greater than 100 nM; at human MMP14 it was greater than 100 nM.
For the compound `COc1cc(Cl)c(C)cc1N1CCN(C(=O)CCC2(C)NC(=O)NC2=O)CC1` (centres unmarked) [Cpd 58, 5-[3-[4-(4-chloro-2-methoxy-5-methyl-phenyl)piperazin-1-yl]-3-oxo-propyl]-5-methyl-imidazolidine-2,4-dione], the IC50 is 25 to 50 nM at human ADAMTS6; greater than 100 nM at human MMP13 [1]; greater than 100 nM on human ADAMTS-5; greater than 100 nM on human ADAMTS4 (setting [3]); greater than 100 nM on human TACE.
`COc1cc(N2CCN(C(=O)CCC3(C)NC(=O)NC3=O)CC2)cc(Cl)c1F` (centres unmarked) [Cpd 50, 5-[3-[4-(3-chloro-4-fluoro-5-methoxy-phenyl)piperazin-1-yl]-3-oxo-propyl]-5-methyl-imidazolidine-2,4-dione]: the concentration for half-maximal inhibition (IC50) on human MMP13 [2] was greater than 100 nM; at human ADAMTS6 it was 0.001 to 25 nM; at human ADAMTS-5 it was greater than 100 nM; at human ADAMTS4 (setting [3]), greater than 100 nM; against human TACE, greater than 100 nM.
For the compound `COc1cc(F)cc(N2CCN(C(=O)CC[C@@]3(C)NC(=O)NC3=O)CC2)c1` [Cpd 19, (R)-5-[3-[4-(3-fluoro-5-methoxy-phenyl)piperazin-1-yl]-3-oxo-propyl]-5-methyl-imidazolidine-2,4-dione], the IC50 on human MMP13 [2] is greater than 100 nM; at human ADAMTS6 it was 50 to 100 nM; on human ADAMTS-5, greater than 100 nM; at human ADAMTS4 (setting [3]), greater than 100 nM; on human TACE it was greater than 100 nM.
Take `COCC1(CC(C)C(=O)N2CCN(c3ccc(Cl)c(OC)c3)[C@@H](C)C2)NC(=O)NC1=O` (mixture of isomers) [Cpd 47, 5-[3-[(3S)-4-(4-chloro-3-methoxy-phenyl)-3-methyl-piperazin-1-yl]-2-methyl-3-oxo-propyl]-5-(methoxymethyl)imidazolidine-2,4-dione]: the IC50 was greater than 100 nM on human MMP13 [2]; 0.001 to 25 nM on human ADAMTS6; 25 to 50 nM at human ADAMTS-5; 25 to 50 nM against human ADAMTS4; greater than 100 nM against human TACE; greater than 100 nM on human MMP14.
As for `COc1cc(N2CCN(C(=O)CC[C@@]3(C)NC(=O)NC3=O)CC2)cc(F)c1F` [Cpd 20, (R)-5-[3-[4-(3,4-difluoro-5-methoxy-phenyl)piperazin-1-yl]-3-oxo-propyl]-5-methyl-imidazolidine-2,4-dione], the IC50 on human MMP13 [2] was greater than 100 nM; at human ADAMTS6, 0.001 to 25 nM; on human ADAMTS-5 it was greater than 100 nM; at human ADAMTS4 (setting [3]), greater than 100 nM; at human TACE, greater than 100 nM.
Consider `COc1cc(N2CCN(C(=O)CC[C@H]3NC(=O)NC3=O)CC2)cc(Cl)c1Cl` [Cpd 145, (5R)-5-[3-[4-(3,4-dichloro-5-methoxy-phenyl)piperazin-1-yl]-3-oxo-propyl]imidazolidine-2,4-dione], for which the IC50 on human MMP13 [2] was greater than 100 nM; at human ADAMTS6, 0.001 to 25 nM; at human ADAMTS-5, 50 to 100 nM; at human ADAMTS4 (setting [3]), greater than 100 nM; against human TACE, greater than 100 nM; on human MMP14, greater than 100 nM.
As to `CC(C)c1cc(N2CCN(C(=O)CC[C@@]3(C)NC(=O)NC3=O)C[C@@H]2C)ccc1Cl` [Cpd 85, (5R)-5-[3-[(3 S)-4-(4-chloro-3-isopropyl-phenyl)-3-methyl-piperazin-1-yl]-3-oxo-propyl]-5-methyl-imidazolidine-2,4-dione], the IC50 at human ADAMTS6 was 0.001 to 25 nM; at human MMP13 [1] it was greater than 100 nM; at human ADAMTS4 (setting [3]), greater than 100 nM.
Turning to `CCc1cc(N2CCN(C(=O)CCC3(CCC(=O)O)NC(=O)NC3=O)C[C@@H]2C)ccc1Cl` (some centres unmarked) [Cpd 116, 3-[4-[3-[(3 S)-4-(4-chloro-3-ethyl-phenyl)-3-methyl-piperazin-1-yl]-3-oxo-propyl]-2,5-dioxo-imidazolidin-4-yl]propanoic acid], the IC50 on human ADAMTS6 is 0.001 to 25 nM; on human MMP13 [1], greater than 100 nM; on human ADAMTS4 (setting [3]) it was greater than 100 nM.
Turning to `CCc1cc(N2CCN(C(=O)CCC3(CCC(=O)OC(C)(C)C)NC(=O)NC3=O)C[C@@H]2C)ccc1Cl` (stereo partly drawn) [Cpd 114, tert-butyl 3-[4-[3-[(3S)-4-(4-chloro-3-ethyl-phenyl)-3-methyl-piperazin-1-yl]-3-oxo-propyl]-2,5-dioxo-imidazolidin-4-yl]propanoate], the IC50 on human ADAMTS6 is 0.001 to 25 nM; at human MMP13 [1], greater than 100 nM; on human ADAMTS4 (setting [3]), greater than 100 nM.
In the case of `CCc1cc(N2CCN(C(=O)[C@@H](C)C[C@@]3(COC)NC(=O)NC3=O)C[C@@H]2C)ccc1Cl` (stereo in doubt) [Cpd 124, 5-[3-[(3S)-4-(4-chloro-3-ethyl-phenyl)-3-methyl-piperazin-1-yl]-2-methyl-3-oxo-propyl]-5-(methoxymethyl)imidazolidine-2,4-dione], the IC50 at human ADAMTS6 is 0.001 to 25 nM; on human MMP13 [1] it was greater than 100 nM; on human ADAMTS4 (setting [3]), greater than 100 nM.
